Measured values from BigSolDB 2.1.

O=c1[nH]cc(F)c(=O)[nH]1
solubility (mole fraction)
Conditions | 283.15 K | 288.15 K | 293.15 K | 298.15 K | 303.15 K | 308.15 K | 313.15 K | 318.15 K | 323.15 K
in DMF | 0.00344 | 0.00452 | 0.00556 | 0.00658 | 0.00779 | 0.00923 | 0.0109 | 0.0127 | 0.0143
in acetic acid | 0.000413 | 0.000496 | 0.000592 | 0.000722 | 0.000891 | 0.0011 | 0.00134 | 0.0017 | 0.0022
in ethanol | 0.00202 | 0.00224 | 0.00245 | 0.00268 | 0.00301 | 0.00331 | 0.00369 | 0.00402 | 0.00451
in formic acid | 0.000481 | 0.000568 | 0.000675 | 0.000827 | 0.000988 | 0.00121 | 0.00147 | 0.00186 | 0.00238
in isobutanol | 0.000629 | 0.000731 | 0.000854 | 0.00101 | 0.0012 | 0.00143 | 0.00173 | 0.00213 | 0.00261
in isopentanol | 0.000714 | 0.000823 | 0.00095 | 0.00112 | 0.00132 | 0.00156 | 0.00188 | 0.00232 | 0.00276
in isopropanol | 0.000549 | 0.000647 | 0.000762 | 0.000908 | 0.00107 | 0.00132 | 0.00161 | 0.00195 | 0.00247
in methanol | 0.00313 | 0.00357 | 0.0041 | 0.00464 | 0.00521 | 0.0058 | 0.00643 | 0.00713 | 0.00787
in n-butanol | 0.00101 | 0.00113 | 0.00128 | 0.00147 | 0.00168 | 0.00197 | 0.00232 | 0.00269 | 0.0031
in n-butyric acid | 0.000247 | 0.000296 | 0.000364 | 0.000444 | 0.000557 | 0.000696 | 0.000877 | 0.00111 | 0.00143
in n-pentanol | 0.000791 | 0.000902 | 0.00104 | 0.0012 | 0.0014 | 0.00166 | 0.00199 | 0.00226 | 0.00286
in n-propanol | 0.00184 | 0.00213 | 0.00242 | 0.00272 | 0.00303 | 0.00338 | 0.00376 | 0.00415 | 0.00465
in propionic acid | 0.000374 | 0.000454 | 0.000536 | 0.000668 | 0.000816 | 0.00101 | 0.0013 | 0.00166 | 0.00214
in water | 0.0011 | 0.00131 | 0.00153 | 0.00175 | 0.00198 | 0.00229 | 0.00256 | 0.00298 | 0.00345
